According to patent US20080004247A1, “Combinations of Statins with Bronchodilators” (ASTRAZENECA AB, priority 2004, published 2008):

Test: Meta-analysis of 2 one-year clinical trials: incidence of severe COPD exacerbations with and without concomitant statins
Type: in vivo, patients
Conditions: severe exacerbations = need for a treatment course of oral corticosteroids
Description: A meta-analysis was performed from 2 one-year clinical trials in moderate to severe COPD. Patients treated with budesonide (Pulmicort®), formoterol (Oxis®), formoterol+budesonide (Symbicort®) or Placebo were analysed with and without statins as concomitant medication. The incidence of severe exacerbations, defined as need for a treatment course of oral corticosteroids, was determined.

[1] = PLUS STATINS as concomitant medication

**Q.** Which “Incidence of exacerbations per year” value (EXCLUDING STATINS) does the source give for `CCCC1O[C@@H]2C[C@H]3[C@@H]4CCC5=CC(=O)C=C[C@]5(C)[C@H]4[C@@H](O)C[C@]3(C)[C@]2(C(=O)CO)O1` (stereo partly shown) [Budesonide, budesonide] here?
**A.** Its value is 0.9 (n = 379) per year.

**Q.** What about the “Incidence of exacerbations per year” value [1] of the same compound?
**A.** The value was 0.7 (n = 8) per year.

**Q.** With `COc1ccc(CC(C)NCC(O)c2ccc(O)c(NC=O)c2)cc1` (stereo not shown) [Formoterol, formoterol] as the compound, how does the “Incidence of exacerbations per year” value (EXCLUDING STATINS) read?
**A.** Its value is 1.0 (n = 388) per year.

**Q.** What about the “Incidence of exacerbations per year” value [1] of the same compound?
**A.** Its value is 0.4 (n = 9) per year.
